Test results as given in patent US11597702B2, “Substituted pyrazoles FFA4/GPR120 receptor agonists” (AXXAM S.P.A., priority 2018, dated 2023).

What follows are molecules tested against T1, GPR120 (Homo sapiens, UniProt Q5NUL3) (assay: GPR120 agonism in CHO mitoPhotinaGPR120 cell based assay with fluorescent (Fluo-8 calcium, FLIPRTetra) readout, Agonist Mode, dose response). Conditions: CHO mitoPhotinaGPR120 cells, Fluo-8 No Wash Ca2+ dye, dose response in quadruplicate, 0.0033% fatty acid free BSA.
T1 construct: expressed in transfected cells; host or cells: CHO mitoPhotinaGPR120 cells
T1 sequence (Q5NUL3 1-361): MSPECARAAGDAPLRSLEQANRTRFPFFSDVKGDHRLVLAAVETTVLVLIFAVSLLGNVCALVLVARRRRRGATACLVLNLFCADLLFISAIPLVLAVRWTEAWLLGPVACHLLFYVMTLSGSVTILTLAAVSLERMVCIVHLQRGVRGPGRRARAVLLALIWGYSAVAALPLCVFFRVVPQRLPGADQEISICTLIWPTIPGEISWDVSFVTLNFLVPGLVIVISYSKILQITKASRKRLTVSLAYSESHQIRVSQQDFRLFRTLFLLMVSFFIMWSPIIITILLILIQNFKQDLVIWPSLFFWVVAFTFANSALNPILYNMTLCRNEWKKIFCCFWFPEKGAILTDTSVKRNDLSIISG

Question: `Cc1nn(-c2ccccc2)c(COc2ccc(-c3nc(CO)cs3)cc2)c1C#N` [Example 146, 5-[[4-[4-(hydroxymethyl)thiazol-2-yl]phenoxy]methyl]-3-methyl-1-phenyl-pyrazole-4-carbonitrile] was tested. Which EC50 did it give?
Answer: The EC50 was 3.36 µM.

Question: `Cc1nn(-c2ccccc2)c(COc2ccc(CO)cc2C(F)(F)F)c1C#N` [Example 147, 5-[[4-(hydroxymethyl)-2-(trifluoromethyl)phenoxy]methyl]-3-methyl-1-phenyl-pyrazole-4-carbonitrile] was tested. Which EC50 did it give?
Answer: The EC50 was 1.49 µM.

Question: Which EC50 does the source give for `Cc1nn(-c2ccccn2)c(COc2ccc(CCCO)cc2)c1C#N` [Example 149, 5-[[4-(3-hydroxypropyl)phenoxy]methyl]-3-methyl-1-(2-pyridyl)pyrazole-4-carbonitrile] here?
Answer: Its EC50 is 0.15 µM.

Question: Which EC50 does the source give for `Cc1ccc(-n2nc(C)c(C#N)c2COc2ccc(CCCO)cc2)cc1` [Example 150, 5-[[4-(3-hydroxypropyl)phenoxy]methyl]-3-methyl-1-(p-tolyl)pyrazole-4-carbonitrile] here?
Answer: Its EC50 is 0.15 µM.

Question: `CCc1ccc(-n2nc(C)c(C#N)c2COc2ccc(CCCO)cc2)cc1` [Example 151, 1-(4-ethylphenyl)-5-[[4-(3-hydroxypropyl)phenoxy]methyl]-3-methyl-pyrazole-4-carbonitrile] was tested. Which EC50 did it give?
Answer: Its EC50 is 0.24 µM.

Question: Which EC50 does the source give for `Cc1nn(-c2ccc(Cl)cc2)c(COc2ccc(CCCO)cc2)c1C#N` [Example 152, 1-(4-chlorophenyl)-5-[[4-(3-hydroxypropyl)phenoxy]methyl]-3-methyl-pyrazole-4-carbonitrile] here?
Answer: Its EC50 is 0.51 µM.

Question: `Cc1nn(C2CCCC2)c(COc2ccc(CCCO)cc2)c1C#N` [Example 153, 1-cyclopentyl-5-[[4-(3-hydroxypropyl)phenoxy]methyl]-3-methyl-pyrazole-4-carbonitrile] was tested. Which EC50 did it give?
Answer: Its EC50 is 0.18 µM.

Question: Which EC50 does the source give for `Cc1nn(-c2ccc(F)cn2)c(COc2ccc(CCCO)cc2)c1C#N` [Example 154, 1-(5-fluoro-2-pyridyl)-5-[[4-(3-hydroxypropyl)phenoxy]methyl]-3-methyl-pyrazole-4-carbonitrile] here?
Answer: Its EC50 is 0.21 µM.

Question: Which EC50 does the source give for `Cc1nn(-c2ccc(Cl)cn2)c(COc2ccc(CCCO)cc2)c1C#N` [Example 155, 1-(5-chloro-2-pyridyl)-5-[[4-(3-hydroxypropyl)phenoxy]methyl]-3-methyl-pyrazole-4-carbonitrile] here?
Answer: The EC50 was 0.81 µM.

Question: For `Cc1ccc(-n2nc(C)c(C#N)c2COc2ccc(CCCO)cc2)nc1` [Example 156, 5-[[4-(3-hydroxypropyl)phenoxy]methyl]-3-methyl-1-(5-methyl-2-pyridyl)pyrazole-4-carbonitrile], which EC50 is on record?
Answer: The EC50 was 0.19 µM.

Question: `COc1ccc(-n2nc(C)c(C#N)c2COc2ccc(CCCO)cc2)nc1` [Example 157, 5-[[4-(3-hydroxypropyl)phenoxy]methyl]-1-(5-methoxy-2-pyridyl)-3-methyl-pyrazole-4-carbonitrile] was tested. Which EC50 did it give?
Answer: Its EC50 is 0.28 µM.

Question: `Cc1nn(-c2ccccn2)c(COc2c(F)cc(CCCO)cc2F)c1C#N` [Example 158, 5-[[2,6-difluoro-4-(3-hydroxypropyl)phenoxy]methyl]-3-methyl-1-(2-pyridyl)pyrazole-4-carbonitrile] was tested. Which EC50 did it give?
Answer: The EC50 was 0.13 µM.

Question: How did the EC50 turn out when `Cc1ccc(-n2nc(C)c(C#N)c2COc2c(F)cc(CCCO)cc2F)cc1` [Example 159, 5-[[2,6-difluoro-4-(3-hydroxypropyl)phenoxy]methyl]-3-methyl-1-(p-tolyl)pyrazole-4-carbonitrile] was run?
Answer: Its EC50 is 0.19 µM.

Question: `CCc1ccc(-n2nc(C)c(C#N)c2COc2c(F)cc(CCCO)cc2F)cc1` [Example 160, 5-[[2,6-difluoro-4-(3-hydroxypropyl)phenoxy]methyl]-1-(4-ethylphenyl)-3-methyl-pyrazole-4-carbonitrile] was tested. Which EC50 did it give?
Answer: The EC50 was 0.3 µM.

Question: How did the EC50 turn out when `COc1ccc(-n2nc(C)c(C#N)c2COc2c(F)cc(CCCO)cc2F)cc1` [Example 161, 5-[[2,6-difluoro-4-(3-hydroxypropyl)phenoxy]methyl]-1-(4-methoxyphenyl)-3-methyl-pyrazole-4-carbonitrile] was run?
Answer: The EC50 was 0.23 µM.

Question: Which EC50 does the source give for `Cc1nn(-c2ccc(Cl)cc2)c(COc2c(F)cc(CCCO)cc2F)c1C#N` [Example 162, 1-(4-chlorophenyl)-5-[[2,6-difluoro-4-(3-hydroxypropyl)phenoxy]methyl]-3-methyl-pyrazole-4-carbonitrile] here?
Answer: Its EC50 is 0.43 µM.

Question: How did the EC50 turn out when `Cc1nn(C2CCCC2)c(COc2c(F)cc(CCCO)cc2F)c1C#N` [Example 163, 1-cyclopentyl-5-[[2,6-difluoro-4-(3-hydroxypropyl)phenoxy]methyl]-3-methyl-pyrazole-4-carbonitrile] was run?
Answer: The EC50 was 0.099 µM.

Question: Which EC50 does the source give for `Cc1nn(-c2ccc(F)cn2)c(COc2c(F)cc(CCCO)cc2F)c1C#N` [Example 164, 5-[[2,6-difluoro-4-(3-hydroxypropyl)phenoxy]methyl]-1-(5-fluoro-2-pyridyl)-3-methyl-pyrazole-4-carbonitrile] here?
Answer: The EC50 was 0.19 µM.

Question: With `Cc1ccc(-n2nc(C)c(C#N)c2COc2c(F)cc(CCCO)cc2F)nc1` [Example 165, 5-[[2,6-difluoro-4-(3-hydroxypropyl)phenoxy]methyl]-3-methyl-1-(5-methyl-2-pyridyl)pyrazole-4-carbonitrile] as the molecule, how does the EC50 read?
Answer: Its EC50 is 0.17 µM.

Question: With `Cc1nn(-c2ccc(Cl)cn2)c(COc2c(F)cc(CCCO)cc2F)c1C#N` [Example 166, 1-(5-chloro-2-pyridyl)-5-[[2,6-difluoro-4-(3-hydroxypropyl)phenoxy]methyl]-3-methyl-pyrazole-4-carbonitrile] as the molecule, how does the EC50 read?
Answer: Its EC50 is 0.22 µM.

Question: How did the EC50 turn out when `COc1ccc(-n2nc(C)c(C#N)c2COc2c(F)cc(CCCO)cc2F)nc1` [Example 167, 5-[[2,6-difluoro-4-(3-hydroxypropyl)phenoxy]methyl]-1-(5-methoxy-2-pyridyl)-3-methyl-pyrazole-4-carbonitrile] was run?
Answer: Its EC50 is 0.21 µM.

Question: For `COc1ccc(S(=O)(=O)Nc2c(C)cc(C)cc2C)cc1` [GSK137639A, reference compound], which EC50 is on record?
Answer: Its EC50 is 4.48 µM.
